Measurements reported in article PMC6433232, “Targeting mitochondria in cancer therapy could provide a basis for the selective anti-cancer activity” (PLoS ONE, 2019).
“And” between values parts separate entries of the source, which are not always exact repeats. Equal entries are not always repeated. Where two headings read alike, the source gives them in different places.

System: primary acute myeloid leukemia (AML) cells obtained from patients
Assay: Kinase inhibitor library screening with and without NSC130362, primary AML cells
Format: cell-based, Human
[1] = ratio of EC50 for inhibitor to EC50 for inhibitor/NSC130362 combination, NSC130362 10 μM, Screen N 1
[2] = ratio of EC50 for inhibitor to EC50 for inhibitor/NSC130362 combination, NSC130362 10 μM, Screen N 2
[3] = ratio of EC50 for inhibitor to EC50 for inhibitor/NSC130362 combination, NSC130362 10 μM

Compound	EC50 decrease, fold (Screen N 1) [1]	EC50 decrease, fold (Screen N 2) [2]	EC50 decrease, fold (Screen N 3) [3]	EC50 decrease, fold (Screen N 1)	EC50 decrease, fold (Screen N 2)
CC(C)n1nc(-c2ccc3oc(N)nc3c2)c2c(N)ncnc21 [INK-128]	0.0632 fold	0.9 fold	0.0858 fold		
O=c1cc(-c2cccc3c2Sc2ccccc2S3)oc(N2CCOCC2)c1 [KU-55933]	0.222 fold	1.0 fold	959.3 fold		
JAK Inhibitor I	0.847 fold	1.0 fold	46.2 fold		
C[C@@H](Oc1cc(-c2cnn(C3CCNCC3)c2)cnc1N)c1c(Cl)ccc(F)c1Cl [Crizotinib (PF-2341066)]				11.4 fold and 6.3 fold	1.0 fold
COc1c(Cl)cc2c([nH]c3cnccc32)c1NC(=O)c1cccnc1C [MLN120B]	6.2 fold	1.0 fold	121.2 fold		
COc1cc(Oc2ccnc3cc(OC)c(OC)cc23)ccc1NC(=O)NC(C)c1nccs1 (stereo not drawn) [KI20227]	0.6 fold	1.0 fold	1.0 fold		
C=CCNC1=C2C[C@@H](C)C[C@H](OC)[C@H](O)[C@@H](C)/C=C(\C)[C@H](OC(N)=O)[C@@H](OC)/C=C\C=C(/C)C(=O)NC(=CC1=O)C2=O [17-AAG (Tanespimycin)]	10.6 fold	12.1 fold	612.9 fold		
COc1ccc(C2=N[C@@H](c3ccc(Cl)cc3)[C@@H](c3ccc(Cl)cc3)N2C(=O)N2CCNC(=O)C2)c(OC(C)C)c1 [Nutlin 3a]	0.1 fold	1.0 fold	0.9 fold		
COc1cc2c(Oc3ccc(NC(=O)C4(C(=O)Nc5ccc(F)cc5)CC4)cc3F)ccnc2cc1OCCCN1CCOCC1 [Foretinib (XL880)]	0.666 fold	1.0 fold	2.2 fold		
O=C(O)c1ccc(Nc2ncc3c(n2)-c2ccc(Cl)cc2C(c2c(F)cccc2F)=NC3)cc1 [MLN8054]	1.3 fold	1.0 fold	0.001 fold		
CC[C@H](Nc1ncnc2[nH]cnc12)c1nc2cccc(F)c2c(=O)n1-c1ccccc1 [GS-1101 (CAL-101)]	506.3 fold	1.0 fold	356.4 fold		
Nc1ncnc2c1nc(Cl)n2[C@@H]1O[C@H](CO)[C@@H](O)[C@H]1O [8-cl-Adenosine]		1.0 fold			
Cc1ccc(F)c(NC(=O)Nc2ccc(-c3cccc4[nH]nc(N)c34)cc2)c1 [Linifanib (ABT-869)]	261.0 fold	1.4 fold	1.0 fold		
Cc1[nH]c2ccc(F)cc2c1-c1nc2c3cccnc3c3ncccc3c2[nH]1 [APTO-253]		1.0 fold			
O=C(Nc1cccc(C(F)(F)F)c1)Nc1cc(S(=O)(=O)NC2CC2)ccc1-c1ccsc1 [AGI-6780]	1.0 fold	1.0 fold	17.0 fold		
Cn1c(Nc2ccc(C(F)(F)F)cc2)nc2cc(Oc3ccnc(-c4ncc(C(F)(F)F)[nH]4)c3)ccc21 [RAF265 (CHIR-265)]	2.6 fold	0.8 fold	0.0556 fold		
NC1(c2ccc(-c3nc4ccn5c(=O)[nH]nc5c4cc3-c3ccccc3)cc2)CCC1 [MK-2206]	15.9 fold	1.0 fold	1.0 fold		
O=C(NOCC1CC1)c1ccc(F)c(F)c1Nc1ccc(I)cc1Cl [CI-1040 (PD184352)]	0.9 fold	1.0 fold	0.0667 fold		
COc1cc(N2CCC(N3CCN(C)CC3)CC2)ccc1Nc1ncc(Cl)c(Nc2ccccc2P(C)(C)=O)n1 [Brigatininb (AP-26113)]	0.0179 fold		1.8 fold		
COc1cc(Nc2ncc3c(n2)-c2ccc(Cl)cc2C(c2c(F)cccc2OC)=NC3)ccc1C(=O)O [Alisertib (MLN8237)]	1.0 fold	1.0 fold	0.3 fold		
Cc1nc(-c2cn3c(n2)-c2ccc(-c4cnn(C(C)(C)C(N)=O)c4)cc2OCC3)n(C(C)C)n1 [Taselisib (GDC-0032)]		2.8 fold			
Cc1ccc2nc(NCCN)c3ncc(C)n3c2c1 [BMS-345541]	1.2 fold	1.0 fold	0.01 fold		
CCN(CCO)CCCOc1ccc2c(Nc3cc(CC(=O)Nc4cccc(F)c4)[nH]n3)ncnc2c1 [Barasertib (AZD1152-HQPA)]	1.0 fold	1.0 fold	642.8 fold		
CN1CC[C@H](c2c(O)cc(O)c3c(=O)cc(-c4ccccc4Cl)oc23)[C@H](O)C1 [Flavopiridol]	2.0 fold	1.1 fold	0.0683 fold		
COc1cc(OC)c(/C=C/S(=O)(=O)Cc2ccc(OC)c(NCC(=O)O)c2)c(OC)c1 [ON-01910]		1.0 fold			
CC[C@H](C)C(=O)O[C@H]1C[C@@H](C)C=C2C=C[C@H](C)[C@H](CC[C@@H]3C[C@@H](O)CC(=O)O3)[C@H]21 [Lovastatin]			1.0 fold		
Cc1cc(Nc2cc(N3CCN(C)CC3)nc(Sc3ccc(NC(=O)C4CC4)cc3)n2)n[nH]1 [Tozasertib (VX-680)]	7.5 fold	1.0 fold	0.9 fold		
Nc1nc(Nc2ccc(S(N)(=O)=O)cc2)nn1C(=O)c1c(F)cccc1F [JNJ-7706621]	3.7 fold	1.0 fold	0.182 fold		
